According to ChEMBL document CHEMBL1909046, “DrugMatrix in vitro pharmacology data”:

Columns and labels:
[1] = molecular target: T1, 3-hydroxy-3-methylglutaryl-coenzyme A reductase (Homo sapiens, UniProt P04035); design: species or system Escherichia coli;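 note: enzyme inhibition assay of HMG-CoA reductase using radiolabeled [14C]HMG-CoA as substrate; in other assays of this panel Not Active means under 50% inhibition at 10 µM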
T1 sequence (P04035 whole entry): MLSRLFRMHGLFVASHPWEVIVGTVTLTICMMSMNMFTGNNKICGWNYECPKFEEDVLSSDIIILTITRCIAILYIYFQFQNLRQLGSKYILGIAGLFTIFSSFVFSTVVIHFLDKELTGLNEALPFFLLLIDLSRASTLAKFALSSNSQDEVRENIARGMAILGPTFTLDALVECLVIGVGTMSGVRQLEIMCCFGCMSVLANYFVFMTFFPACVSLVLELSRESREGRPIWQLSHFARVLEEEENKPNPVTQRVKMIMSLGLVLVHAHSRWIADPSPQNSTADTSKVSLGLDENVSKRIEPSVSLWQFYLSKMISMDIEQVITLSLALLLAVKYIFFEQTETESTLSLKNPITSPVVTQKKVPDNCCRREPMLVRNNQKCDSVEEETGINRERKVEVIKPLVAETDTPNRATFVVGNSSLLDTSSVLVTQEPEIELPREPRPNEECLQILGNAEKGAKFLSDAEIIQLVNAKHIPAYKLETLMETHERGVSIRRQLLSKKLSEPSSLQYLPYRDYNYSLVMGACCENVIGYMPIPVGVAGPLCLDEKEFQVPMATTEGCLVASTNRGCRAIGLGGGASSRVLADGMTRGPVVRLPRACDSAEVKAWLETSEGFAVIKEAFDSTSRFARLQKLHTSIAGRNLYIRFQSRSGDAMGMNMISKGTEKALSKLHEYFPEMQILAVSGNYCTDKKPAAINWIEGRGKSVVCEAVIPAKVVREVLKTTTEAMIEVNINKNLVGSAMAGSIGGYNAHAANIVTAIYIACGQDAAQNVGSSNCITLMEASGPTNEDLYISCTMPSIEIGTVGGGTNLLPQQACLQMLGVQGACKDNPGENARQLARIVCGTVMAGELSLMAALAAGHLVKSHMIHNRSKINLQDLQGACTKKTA

[2] = molecular target: Protein kinase C alpha type (Homo sapiens, UniProt P17252); assay type: cell-based; conditions: sf9;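 note: inhibition of PKCalpha kinase activity measured in an enzyme assay with histone as the phosphorylation substrate; in other assays of this panel Not Active means under 50% inhibition at 10 µM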
[3] = molecular target: Protein phosphatase 3 catalytic subunit alpha (Homo sapiens, UniProt Q08209); design: species or system Escherichia coli;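 note: inhibition of calcineurin (PP2B) enzyme activity, measured with DiFMUP as the substrate; in other assays of this panel Not Active means under 50% inhibition at 10 µM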
[4] = DRUGMATRIX: ATPase, Na+/K+ enzyme inhibition (substrate: ATP); assay type: tissue-based, Sus scrofa, Heart; conditions: Not Active = under 50% inhibition at 10 µM
[5] = molecular target: Beta-2 adrenergic receptor (Homo sapiens, UniProt P07550); assay: DRUGMATRIX: Adrenergic beta2 radioligand binding (ligand: [3H] CGP-12177); assay type: cell membranes, CHO, Membrane; conditions: cho; Not Active = under 50% inhibition at 10 µM
[6] = molecular target: T2, C-X-C chemokine receptor type 2 (Homo sapiens, UniProt P25025); assay type: cell membranes, CHO-K1, Membrane; conditions: cho-k1; note: in other assays of this panel Not Active means under 50% inhibition at 10 µM
T2 sequence (P25025 whole entry): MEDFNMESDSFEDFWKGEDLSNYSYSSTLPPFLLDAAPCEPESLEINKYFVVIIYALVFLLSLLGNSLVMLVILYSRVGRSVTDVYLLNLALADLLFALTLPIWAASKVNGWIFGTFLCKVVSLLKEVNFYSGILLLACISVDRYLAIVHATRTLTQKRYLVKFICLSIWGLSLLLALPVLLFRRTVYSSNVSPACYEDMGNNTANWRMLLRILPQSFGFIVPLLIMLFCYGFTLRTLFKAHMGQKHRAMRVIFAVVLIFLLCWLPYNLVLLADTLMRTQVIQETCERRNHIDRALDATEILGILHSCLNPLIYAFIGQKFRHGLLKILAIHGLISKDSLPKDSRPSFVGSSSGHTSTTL

Insulin receptor = Insulin receptor (Rattus norvegicus, UniProt P15127); assay type: cell membranes, Wistar, Liver, Membrane; note: in other assays of this panel Not Active means under 50% inhibition at 10 µM
Chain of Insulin receptor (P15127 27-759 limits assumed): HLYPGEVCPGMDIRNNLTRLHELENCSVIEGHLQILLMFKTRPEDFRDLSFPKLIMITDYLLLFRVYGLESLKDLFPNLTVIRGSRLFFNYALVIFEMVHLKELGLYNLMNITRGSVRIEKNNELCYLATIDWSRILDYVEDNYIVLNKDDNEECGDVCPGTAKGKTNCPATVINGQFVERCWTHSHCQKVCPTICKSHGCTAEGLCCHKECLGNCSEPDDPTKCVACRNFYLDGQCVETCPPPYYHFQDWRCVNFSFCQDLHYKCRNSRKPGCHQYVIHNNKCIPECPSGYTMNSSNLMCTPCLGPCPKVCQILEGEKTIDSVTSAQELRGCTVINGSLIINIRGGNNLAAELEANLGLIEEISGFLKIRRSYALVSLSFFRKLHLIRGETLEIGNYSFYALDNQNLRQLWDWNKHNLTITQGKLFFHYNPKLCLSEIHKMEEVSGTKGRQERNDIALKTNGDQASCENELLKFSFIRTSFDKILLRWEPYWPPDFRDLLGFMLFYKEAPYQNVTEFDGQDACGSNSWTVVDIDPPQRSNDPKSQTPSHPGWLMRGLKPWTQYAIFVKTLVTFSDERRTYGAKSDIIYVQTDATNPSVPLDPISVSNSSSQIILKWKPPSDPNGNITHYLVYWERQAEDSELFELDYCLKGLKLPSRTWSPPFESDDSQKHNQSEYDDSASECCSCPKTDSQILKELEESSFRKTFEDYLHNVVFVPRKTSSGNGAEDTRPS
Chain of Insulin receptor (P15127 764-1383 limits assumed): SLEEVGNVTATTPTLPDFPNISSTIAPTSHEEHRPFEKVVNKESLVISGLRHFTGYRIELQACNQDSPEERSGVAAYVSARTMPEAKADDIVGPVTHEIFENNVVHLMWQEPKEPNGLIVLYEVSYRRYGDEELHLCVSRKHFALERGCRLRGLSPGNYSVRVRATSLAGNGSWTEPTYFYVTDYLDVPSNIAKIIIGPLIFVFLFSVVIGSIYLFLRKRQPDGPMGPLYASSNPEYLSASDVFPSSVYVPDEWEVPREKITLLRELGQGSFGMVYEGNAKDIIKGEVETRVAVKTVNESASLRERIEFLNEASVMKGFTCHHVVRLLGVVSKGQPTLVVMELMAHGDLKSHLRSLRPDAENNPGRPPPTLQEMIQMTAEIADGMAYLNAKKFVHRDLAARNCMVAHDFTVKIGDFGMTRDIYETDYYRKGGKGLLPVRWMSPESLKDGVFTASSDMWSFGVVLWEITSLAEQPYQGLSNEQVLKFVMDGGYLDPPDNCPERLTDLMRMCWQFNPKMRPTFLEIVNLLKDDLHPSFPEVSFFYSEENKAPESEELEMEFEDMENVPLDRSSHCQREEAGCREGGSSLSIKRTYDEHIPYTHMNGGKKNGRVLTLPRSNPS

Cytochrome P450 3A4 = Cytochrome P450 3A4 (Homo sapiens, UniProt P08684); conditions: bti-tn-5b1-4; note: in other assays of this panel Not Active means under 50% inhibition at 10 µM
Chain of Cytochrome P450 3A4 (P08684 whole entry): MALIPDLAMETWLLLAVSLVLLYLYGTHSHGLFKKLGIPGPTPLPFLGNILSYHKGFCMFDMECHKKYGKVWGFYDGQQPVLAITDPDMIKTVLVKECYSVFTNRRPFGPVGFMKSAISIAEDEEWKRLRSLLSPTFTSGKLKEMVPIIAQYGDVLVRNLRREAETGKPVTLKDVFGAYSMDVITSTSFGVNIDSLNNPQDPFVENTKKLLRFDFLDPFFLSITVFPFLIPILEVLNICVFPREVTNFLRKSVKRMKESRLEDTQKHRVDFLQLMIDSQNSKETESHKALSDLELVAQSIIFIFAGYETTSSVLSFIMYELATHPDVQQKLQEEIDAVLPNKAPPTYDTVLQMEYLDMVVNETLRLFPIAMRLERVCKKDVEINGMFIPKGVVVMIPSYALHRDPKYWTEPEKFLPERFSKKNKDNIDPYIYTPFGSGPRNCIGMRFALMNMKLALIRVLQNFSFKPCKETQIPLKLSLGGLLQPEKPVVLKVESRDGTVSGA

[7] = molecular target: Voltage-gated inwardly rectifying potassium channel KCNH2 (Homo sapiens, UniProt Q12809); conditions: hek293; note: in other assays of this panel Not Active means under 50% inhibition at 10 µM
Chain of Voltage-gated inwardly rectifying potassium channel KCNH2 (Q12809 whole entry): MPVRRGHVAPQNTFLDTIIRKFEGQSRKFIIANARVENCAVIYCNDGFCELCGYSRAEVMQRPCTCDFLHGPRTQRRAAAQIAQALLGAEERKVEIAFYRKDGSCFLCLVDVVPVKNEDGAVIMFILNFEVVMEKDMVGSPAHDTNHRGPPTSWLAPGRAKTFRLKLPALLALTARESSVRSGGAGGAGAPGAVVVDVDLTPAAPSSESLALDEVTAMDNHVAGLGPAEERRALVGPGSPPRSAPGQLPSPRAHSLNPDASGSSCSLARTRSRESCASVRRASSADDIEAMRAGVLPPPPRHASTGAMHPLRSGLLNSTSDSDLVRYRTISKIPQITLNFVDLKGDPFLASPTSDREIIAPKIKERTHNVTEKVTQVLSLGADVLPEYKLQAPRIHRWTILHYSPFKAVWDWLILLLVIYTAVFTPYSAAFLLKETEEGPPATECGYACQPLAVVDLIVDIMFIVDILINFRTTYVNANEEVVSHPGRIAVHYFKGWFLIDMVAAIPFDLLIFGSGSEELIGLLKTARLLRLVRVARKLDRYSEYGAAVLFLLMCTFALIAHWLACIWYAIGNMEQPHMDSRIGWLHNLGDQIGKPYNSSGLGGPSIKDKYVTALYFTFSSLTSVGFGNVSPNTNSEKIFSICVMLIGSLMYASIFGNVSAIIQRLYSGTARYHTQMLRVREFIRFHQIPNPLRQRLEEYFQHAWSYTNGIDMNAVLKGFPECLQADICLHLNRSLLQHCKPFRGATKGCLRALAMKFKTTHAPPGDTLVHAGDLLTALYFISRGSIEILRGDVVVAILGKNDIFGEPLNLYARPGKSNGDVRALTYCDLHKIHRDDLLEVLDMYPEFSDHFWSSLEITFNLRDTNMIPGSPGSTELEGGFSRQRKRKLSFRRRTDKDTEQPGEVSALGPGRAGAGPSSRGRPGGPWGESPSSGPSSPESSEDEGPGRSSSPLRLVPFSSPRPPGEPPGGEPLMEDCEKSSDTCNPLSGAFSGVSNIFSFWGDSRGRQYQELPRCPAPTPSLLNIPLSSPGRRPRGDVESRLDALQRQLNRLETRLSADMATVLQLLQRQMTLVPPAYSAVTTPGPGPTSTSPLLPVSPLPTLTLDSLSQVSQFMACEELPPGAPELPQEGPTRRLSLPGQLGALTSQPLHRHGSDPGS

COc1ccc(Cl)cc1C(=O)NCCc1ccc(S(=O)(=O)NC(=O)NC2CCCCC2)cc1 [GLYBURIDE]
Not Active: IC50 [1] | IC50 [2] | IC50 [3] | IC50 [4] | Ki [4] | IC50 [5] | IC50 [6] | IC50 (Insulin receptor)

CHROMIC CHLORIDE
Not Active: IC50 (Cytochrome P450 3A4) | Ki (Cytochrome P450 3A4) | IC50 [1] | Ki [1] | IC50 [2] | Ki [2] | IC50 [3] | Ki [3] | IC50 [4] | Ki [4] | IC50 [5] | Ki [5] | IC50 [6] | Ki [6] | IC50 [7] | Ki [7] | IC50 (Insulin receptor) | Ki (Insulin receptor)

CCN1C[C@]2(COC)[C@H](O)C[C@H](OC)[C@@]34[C@@H]5C[C@@]6(O)[C@H](OC(=O)c7ccccc7)[C@@H]5[C@@](OC(C)=O)([C@@H]([C@H](OC)[C@H]23)[C@@H]14)[C@@H](O)[C@@H]6OC [ACONITINE]
Not Active: IC50 (Cytochrome P450 3A4) | Ki (Cytochrome P450 3A4) | IC50 [1] | IC50 [2] | IC50 [3] | IC50 [4] | Ki [4] | IC50 [5] | IC50 [6] | IC50 (Insulin receptor)

O=C(O)CCc1nc(-c2ccccc2)c(-c2ccccc2)o1 [OXAPROZIN]
Not Active: IC50 (Cytochrome P450 3A4) | Ki (Cytochrome P450 3A4) | IC50 [1] | IC50 [2] | IC50 [3] | IC50 [4] | Ki [4] | IC50 [5] | IC50 [6] | IC50 [7] | Ki [7] | IC50 (Insulin receptor)

Cc1ccnc2c1NC(=O)c1cccnc1N2C1CC1 [NEVIRAPINE]
Not Active: IC50 (Cytochrome P450 3A4) | Ki (Cytochrome P450 3A4) | IC50 [1] | IC50 [2] | IC50 [3] | IC50 [4] | Ki [4] | IC50 [5] | IC50 [6] | IC50 [7] | Ki [7] | IC50 (Insulin receptor)

Clc1cc(Cl)c(OCC#CI)cc1Cl [HALOPROGIN]
Not Active: IC50 (Cytochrome P450 3A4) | Ki (Cytochrome P450 3A4) | IC50 [1] | IC50 [2] | IC50 [3] | IC50 [4] | Ki [4] | IC50 [5] | IC50 [6] | IC50 [7] | Ki [7] | IC50 (Insulin receptor)

COc1ccccc1OCCNCC(O)COc1cccc2[nH]c3ccccc3c12 (centres undefined) [CARVEDILOL]
Not Active: IC50 (Cytochrome P450 3A4) | Ki (Cytochrome P450 3A4) | IC50 [1] | IC50 [2] | IC50 [3] | IC50 [4] | Ki [4] | IC50 [6] | IC50 (Insulin receptor)

CCN1CCN(c2cc3c(cc2F)c(=O)c(C(=O)O)cn3C2CC2)CC1 [ENROFLOXACIN]
Not Active: IC50 (Cytochrome P450 3A4) | Ki (Cytochrome P450 3A4) | IC50 [1] | IC50 [2] | IC50 [3] | IC50 [4] | Ki [4] | IC50 [5] | IC50 [6] | IC50 [7] | Ki [7] | IC50 (Insulin receptor)

NS(=O)(=O)c1cc(C(=O)O)c(NCc2ccco2)cc1Cl [FUROSEMIDE]
Not Active: IC50 [1] | IC50 [2] | IC50 [3] | IC50 [4] | Ki [4] | IC50 [5] | IC50 [6] | IC50 (Insulin receptor)

CC(C)NCC(O)COc1ccc(CC(N)=O)cc1 (centres undefined) [ATENOLOL]
Not Active: IC50 [1] | IC50 [2] | IC50 [3] | IC50 [4] | Ki [4] | IC50 [6] | IC50 (Insulin receptor)

NC(N)=Nc1nc(CSCCC(N)=NS(N)(=O)=O)cs1 [FAMOTIDINE]
Not Active: IC50 (Cytochrome P450 3A4) | Ki (Cytochrome P450 3A4) | IC50 [1] | IC50 [2] | IC50 [3] | IC50 [4] | Ki [4] | IC50 [5] | IC50 [6] | IC50 (Insulin receptor)

CC[C@H]1OC(=O)[C@H](C)[C@@H](O[C@H]2C[C@@](C)(OC)[C@@H](O)[C@H](C)O2)[C@H](C)[C@@H](O[C@@H]2O[C@H](C)C[C@H](N(C)C)[C@H]2O)[C@](C)(O)C[C@@H](C)C(=O)[C@H](C)[C@@H](O)[C@]1(C)O [ERYTHROMYCIN]
Not Active: IC50 (Cytochrome P450 3A4) | Ki (Cytochrome P450 3A4) | IC50 [1] | IC50 [2] | IC50 [3] | IC50 [4] | Ki [4] | IC50 [5] | IC50 [6] | IC50 (Insulin receptor)

O=C(O)CNCP(=O)(O)O [GLYPHOSATE]
Not Active: IC50 [1] | IC50 [2] | IC50 [3] | IC50 [4] | Ki [4] | IC50 [5] | IC50 [6] | IC50 [7] | Ki [7] | IC50 (Insulin receptor)

C[C@H]1C[C@H]2[C@@H]3CCC4=CC(=O)C=C[C@]4(C)[C@@]3(F)[C@@H](O)C[C@]2(C)[C@@]1(O)C(=O)CO [BETAMETHASONE]
Not Active: IC50 [1] | IC50 [2] | IC50 [3] | IC50 [4] | Ki [4] | IC50 [5] | IC50 [6] | IC50 [7] | Ki [7] | IC50 (Insulin receptor)

CNC[C@H](O)c1ccc(O)c(O)c1 [EPINEPHRINE]
Not Active: IC50 (Cytochrome P450 3A4) | Ki (Cytochrome P450 3A4) | IC50 [1] | IC50 [2] | IC50 [3] | IC50 [4] | Ki [4] | IC50 [6] | IC50 [7] | Ki [7] | IC50 (Insulin receptor)

CCN1CCN(C(=O)N[C@@H](C(=O)N[C@@H]2C(=O)N3[C@@H]2SC(C)(C)[C@@H]3C(=O)O)c2ccccc2)C(=O)C1=O [PIPERACILLIN]
Not Active: IC50 (Cytochrome P450 3A4) | Ki (Cytochrome P450 3A4) | IC50 [1] | IC50 [2] | IC50 [3] | IC50 [4] | Ki [4] | IC50 [5] | IC50 [6] | IC50 (Insulin receptor)

C#C[C@]1(O)CC[C@H]2[C@@H]3CCC4=CC(=O)CC[C@@H]4[C@H]3CC[C@@]21C [NORETHINDRONE]
Not Active: IC50 [1] | IC50 [2] | IC50 [3] | IC50 [4] | Ki [4] | IC50 [5] | IC50 [6] | IC50 [7] | Ki [7] | IC50 (Insulin receptor)

CCN(CCO)CCCC(C)Nc1ccnc2cc(Cl)ccc12 (centres undefined) [HYDROXYCHLOROQUINE]
Not Active: IC50 [1] | IC50 [2] | IC50 [3] | IC50 [4] | Ki [4] | IC50 [5] | IC50 [6] | IC50 [7] | Ki [7] | IC50 (Insulin receptor)

COc1cc([C@@H]2c3cc4c(cc3[C@H](O)[C@H]3COC(=O)[C@H]23)OCO4)cc(OC)c1OC [PODOFILOX]
Not Active: IC50 [1] | IC50 [2] | IC50 [3] | IC50 [4] | Ki [4] | IC50 [5] | IC50 [6] | IC50 [7] | Ki [7] | IC50 (Insulin receptor)

CC(C)(C#N)c1cc(Cn2cncn2)cc(C(C)(C)C#N)c1 [ANASTROZOLE]
Not Active: IC50 [1] | IC50 [2] | IC50 [3] | IC50 [4] | Ki [4] | IC50 [5] | IC50 [6] | IC50 [7] | Ki [7] | IC50 (Insulin receptor)
